Test results from patent publication US9115122B2, “Non-ATP dependent inhibitors of extracellular signal-regulated kinase (ERK)” (UNIVERSITY OF MARYLAND, BALTIMORE, priority 2012, dated 2015).

Legend:
[1] = system: c-Fos, Fra1, and FosB expression; test: Immunoblot of EGF-induced c-Fos, Fra1 and FosB expression in HeLa cells; format: cell-based; conditions: EGF 25 ng/mL
Method: FIG. 3. EGF-mediated induction of AP-1 proteins is inhibited by SF-3-026 and SF-3-030. (a) HeLa cells were treated for 10, 30, or 60 min. with EGF (25 ng/mL) in the presence of 50 μM SF-3-026 or 10 μM U0126. Protein lysates were immunoblotted for c-Fos, Fra1, FosB and FosB2. Phosphorylated ERK1/2 is not affected by SF-3-026 and α-tubulin expression is shown for a protein loading control. (b) Protein lysates from HeLa cells treated for 30 min. with EGF in the absence or presence of 10, 25, 50, or 100 μM of SF-3-026 or SF-3-030 were immunoblotted for c-Fos, Fra1, FosB, FosB2, as well as phosphorylated ERK1/2 and MEK1/2. Total ERK2 and α-tubulin expression are shown for protein loading controls. Data are representative of three independent experiments.
Analysis of protein expression levels, activity, and cell proliferation were done as previously described. […] Proteins were separated by SDS-PAGE, analyzed by immunoblotting, and detected using enhanced chemiluminescence (ECL, GE Healthcare, United Kingdom).
The reported half-life for c-Fos is ˜10 minutes and growth factor-mediated stabilization of c-Fos protein expression can be observed within 30-60 minutes, whereas stabilization of Fra1 protein is delayed due to AP-1 regulation of the Fra1 promoter. Thus, growth factor-mediated induction of c-Fos, Fra1, and FosB expression was evaluated following treatment with SF-3-026. […]

ERK2 wild type (WT) = ERK2 wild type (WT) (Rattus norvegicus (Rat), UniProt P63086); test: Fluorescence quenching (FQ) binding affinity; conditions: 1 nM to 20 μM test compound
ERK2 L198A/L232A = ERK2 L198A/L232A (Rattus norvegicus (Rat), UniProt P63086, L198A/L232A); test: Fluorescence quenching (FQ) binding affinity; conditions: read-out: KD L198A/L232A (Site 5)
[2] = system: Jurkat T-cell leukemia cells; test: Cell proliferation, fluorescent Cell Titer Blue Assay (Example 1); format: cell-based; conditions: Homo sapiens, 48 hours
Method in brief: (§1)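 Cells seeded at 25,000/well, cultured overnight, then treated with compound across a concentration range for 48 hours. Proliferation read by fluorescent Cell Titer Blue; repeated in 3 separate experiments.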

[3] = system: HeLa cervical carcinoma cells; test: as above; format: cell-based; conditions: Homo sapiens, 48 hours
Method in brief: as §1

RPMI7951 melanoma cells = test: as above; format: cell-based; conditions: Homo sapiens, RPMI-7951; 48 hours
Method in brief: as §1

A375 melanoma cells = test: as above; format: cell-based; conditions: Homo sapiens, A-375; 48 hours
Method in brief: as §1

ERK2 L232A = ERK2 L232A (Rattus norvegicus (Rat), UniProt P63086, L232A); test: Fluorescence quenching (FQ) binding affinity; conditions: read-out: KD L232A (Site 5)
ERK2 L232A, sequence (P63086 whole entry L232A): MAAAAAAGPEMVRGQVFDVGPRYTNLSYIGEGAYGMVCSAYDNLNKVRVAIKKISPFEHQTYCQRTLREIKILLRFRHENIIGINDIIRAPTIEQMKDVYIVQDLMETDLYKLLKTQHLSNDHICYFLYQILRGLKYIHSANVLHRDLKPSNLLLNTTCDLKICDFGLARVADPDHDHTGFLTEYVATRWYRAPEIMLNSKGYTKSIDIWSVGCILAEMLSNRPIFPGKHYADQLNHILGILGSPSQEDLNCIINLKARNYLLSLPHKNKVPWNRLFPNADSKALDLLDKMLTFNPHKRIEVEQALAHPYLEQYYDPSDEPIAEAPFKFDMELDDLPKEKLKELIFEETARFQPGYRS

ERK2 wild type (WT), sequence (P63086 whole entry): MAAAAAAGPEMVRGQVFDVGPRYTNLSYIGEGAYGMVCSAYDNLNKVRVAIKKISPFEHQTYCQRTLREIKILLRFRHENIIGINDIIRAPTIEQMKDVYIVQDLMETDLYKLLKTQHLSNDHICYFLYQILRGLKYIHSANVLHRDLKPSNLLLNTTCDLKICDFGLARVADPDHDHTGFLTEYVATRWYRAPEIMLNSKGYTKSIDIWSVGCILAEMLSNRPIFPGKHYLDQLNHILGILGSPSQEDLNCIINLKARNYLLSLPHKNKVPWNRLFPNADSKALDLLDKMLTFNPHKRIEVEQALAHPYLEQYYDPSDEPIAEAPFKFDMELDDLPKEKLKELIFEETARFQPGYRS
ERK2 L198A/L232A, sequence (P63086 whole entry L198A/L232A): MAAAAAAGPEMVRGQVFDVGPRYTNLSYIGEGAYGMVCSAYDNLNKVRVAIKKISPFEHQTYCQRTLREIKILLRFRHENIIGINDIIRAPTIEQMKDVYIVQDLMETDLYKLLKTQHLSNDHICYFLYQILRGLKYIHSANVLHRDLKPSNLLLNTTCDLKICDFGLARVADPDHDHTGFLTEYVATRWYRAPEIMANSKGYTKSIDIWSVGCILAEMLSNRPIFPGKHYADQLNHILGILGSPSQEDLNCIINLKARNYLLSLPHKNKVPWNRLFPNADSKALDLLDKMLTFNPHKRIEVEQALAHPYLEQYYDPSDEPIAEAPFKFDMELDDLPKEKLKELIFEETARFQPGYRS

- Kd (ERK2 wild type (WT)): 0.13 ± 0.02 µM
- Kd (ERK2 L198A/L232A): 0.14 ± 0.02 µM
- GI50 [2]: > 50 µM
- GI50 [3]: 32 µM
- GI50 (RPMI7951 melanoma cells): 5.1 µM
- GI50 (A375 melanoma cells): 7.8 µM
- Kd (ERK2 L232A): 0.13 µM
Structure (SMILES): O=S1(=O)C=CC(OS(=O)(=O)c2ccccc2)C1 (centres unmarked) [SF-3-026]
- inhibition of EGF-induced c-Fos, Fra1, and FosB expression [1]: dramatic inhibition
